Test in all cases: inhibition of tumour cell growth, NCI panel, 48 h
Assay [1] has as its system CAKI-1 renal.
Assay [2] deals with DLD-1 colon.
Assay [3] deals with HCT-116 colon.
In assay [4] the test system is HL-60(TB) leukemia.
The test system of assay [5] is HT29 colon.
In assay [6] the test system is K-562 leukemia.
In assay [7] the test system is LOX IMVI melanoma.
Assay [8] deals with LXFL 529 NSCLC.
Assay [9] has as its system M19-MEL melanoma.
The subject of assay [10] is SF-268 CNS.
Assay [11] has as its system SF-295 CNS.
Assay [12] concerns SK-MEL-2 melanoma.
For assay [13], the system named is SK-MEL-28 melanoma.
The test system of assay [14] is SK-MEL-5 melanoma.
Assay [15] relates to SW-620 colon.
In assay [16] the test system is TK-10 renal.
Assay [17] has as its system U251 CNS.
Assay [18] concerns HS 578T breast.
The subject of assay [19] is MCF7 breast.

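Five compound concentrations were applied to cells in 96-well plates for 48 hours; endpoints were derived by simple linear interpolation of the resulting dose-response curve. At the TGI there is no net growth.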

Consider `CC(=O)Nc1ccc(-c2nnc(SCC(=O)Nc3ccccc3Cl)o2)cc1`, for which the TGI in assay [1], in assay [2], in assay [3], in assay [4], in assay [5] and in assay [6] was > 100 µM throughout. The TGI in [7], in assay [8], in [9], in assay [10], in assay [11] and in [12] was > 100 µM in each case. For the same molecule, the TGI in [13], in [14], in assay [15], in [16] and in [17] was > 100 µM throughout.
On to `CCc1cc(Cc2cc(CC)c(NC(=O)C3=CC(=O)CC(c4ccc(OC)cc4)O3)c(CC)c2Cl)c(Cl)c(CC)c1NC(=O)C1=CC(=O)CC(c2ccc(OC)cc2)O1` (stereo not given), for which the TGI in assay [1] is 65.8 µM; in [2] it was 34.8 µM; in [3], 31.6 µM; in [4], 68.1 µM; in [5], 36.4 µM; in assay [6] it was > 100 µM. For the same molecule, the TGI in assay [7] came to 32.4 µM; in assay [8] it was 31.9 µM; in assay [9] it was 40.2 µM; in [10] it was 58.2 µM; in assay [11], 38.7 µM; in assay [12], 36.7 µM. Also, the TGI in [13] stood at 41.4 µM; in [14], 36.4 µM; in assay [15], 20.9 µM; in [16] it was 51.7 µM; in assay [17], 26.1 µM.
On to `c1ccc(C2=NN(c3ccccc3)C3(S2)SC(c2ccccc2)(c2ccccc2)c2ccccc23)cc1` (stereo not given), for which the TGI in [1], in assay [2], in [3], in [4], in [5] and in [6] was > 100 µM in each case. In addition, the TGI in assay [7], in assay [8], in [9], in assay [10], in assay [11] and in assay [12] was > 100 µM each time. Also, the TGI in [13], in assay [14], in assay [15], in [16] and in [17] was > 100 µM throughout.
Take `COc1ccc2c(c1)c(Cc1c(C)n(C)c3ccc(OC)cc13)c(C)n2C`: the TGI in assay [1], in assay [2], in assay [3], in [4], in [5] and in assay [6] was > 100 µM in each case. Further, the TGI in assay [7], in [8], in [9], in assay [10], in assay [11] and in [12] was > 100 µM each time. Besides, the TGI in assay [13], in assay [14], in [15], in assay [16] and in [17] was > 100 µM each time.
With `O=S(=O)(CC1=NC2C=CC=CC2N=C1)NCc1ccccc1` (stereo not given), the TGI in assay [1], in assay [2], in [3], in assay [4], in [5] and in assay [6] was > 100 µM each time. Also, the TGI in assay [7], in assay [8], in [9], in assay [10], in [11] and in assay [12] was > 100 µM in each case. Also, the TGI in assay [13], in assay [14], in [15], in [16] and in assay [17] was > 100 µM each time.
In the case of `O=C(Nc1ccc(C(F)(F)F)cc1[N+](=O)[O-])C(=O)C(C(=O)c1ccc2ccccc2c1)C1OC(=O)c2ccccc21` (stereo not given), the TGI in [1] amounted to 41.7 µM; in [2], 26.7 µM; in [3] it was 15.3 µM; in [4], 39.6 µM; in [5], 23.9 µM; in assay [6] it was 47.8 µM. The TGI is 24.1 µM in [7]; 20.9 µM in assay [8]; 42.7 µM in assay [9]; 52 µM in assay [10]; 24.8 µM in assay [11]; 29.9 µM in assay [12]. Besides, the TGI in assay [13] is 18 µM; in assay [14], 18.8 µM; in assay [15], 21.9 µM; in [16], 35 µM; in [17], 17.5 µM.
On to `O=C1/C(=C/c2cccc([N+](=O)[O-])c2)COc2ccccc21`, for which the TGI was > 100 µM in assay [1]; 9.56 µM in assay [2]; 3.16 µM in assay [3]; 5.59 µM in assay [4]; 6.85 µM in assay [5]; > 28.5 µM in [6]. For the same molecule, the TGI in assay [7] was 3.44 µM; in [8], 7.79 µM; in [9] it was 5.49 µM; in assay [10], > 80.3 µM; in [11] it was > 94.5 µM; in [12] it was 20 µM. Further, the TGI is 7.42 µM in assay [13]; 4.99 µM in assay [14]; 2.09 µM in [15]; > 95.2 µM in [16]; 6.83 µM in [17].
`O=C(O)Cc1cc(=O)oc2cc(O)c(Cl)cc12`: the TGI in [1], in assay [2], in assay [3], in assay [4], in assay [5] and in assay [6] was > 100 µM in each case. The TGI in assay [7], in assay [8], in assay [9], in assay [10], in [11] and in [12] was > 100 µM throughout. Moreover, the TGI in [13], in [14], in assay [15], in assay [16] and in assay [17] was > 100 µM in each case.
Regarding `CC[C@@]1(O)C(=O)OCc2c1c(Cl)c1n(c2=O)Cc2cc3ccccc3nc2-1`, the TGI in assay [1] is 16.4 µM; in [2], > 100 µM; in [3] it was 8.76 µM; in assay [4] it was > 26.3 µM; in assay [18], > 100 µM; in assay [5], > 100 µM. The TGI is > 100 µM in assay [6]; 4.01 µM in assay [7]; > 100 µM in assay [8]; > 30.7 µM in assay [9]; > 34.7 µM in assay [19]; 67.7 µM in assay [10]. Further, the TGI is 18 µM in assay [11]; 52.7 µM in assay [12]; > 100 µM in assay [13]; 5.42 µM in [14]; > 100 µM in assay [15]; > 79.5 µM in [16]. This molecule also yielded a TGI in [17] of 11.5 µM.

For the origin of these results see PubChem BioAssay (NCI).
